Results: paper PMC9851200, “Multiparameter phenotypic screening for endogenous TFEB and TFE3 translocation identifies novel chemical series modulating lysosome function” (Autophagy, 2022)

What was measured:
Assay type in all cases: binding
[1] = molecular target: kinases (KINOMEscan panel) (Homo sapiens, UniProt O00750); details: PIK3C2B; NEW KINOMEscan
[2] = molecular target: T1, kinases (KINOMEscan panel) (Homo sapiens, UniProt P36888); details: NEW KINOMEscan; for KINOMEscan FLT3-autoinhibited: kinase FLT3-autoinhibited
T1 sequence (P36888 27-993): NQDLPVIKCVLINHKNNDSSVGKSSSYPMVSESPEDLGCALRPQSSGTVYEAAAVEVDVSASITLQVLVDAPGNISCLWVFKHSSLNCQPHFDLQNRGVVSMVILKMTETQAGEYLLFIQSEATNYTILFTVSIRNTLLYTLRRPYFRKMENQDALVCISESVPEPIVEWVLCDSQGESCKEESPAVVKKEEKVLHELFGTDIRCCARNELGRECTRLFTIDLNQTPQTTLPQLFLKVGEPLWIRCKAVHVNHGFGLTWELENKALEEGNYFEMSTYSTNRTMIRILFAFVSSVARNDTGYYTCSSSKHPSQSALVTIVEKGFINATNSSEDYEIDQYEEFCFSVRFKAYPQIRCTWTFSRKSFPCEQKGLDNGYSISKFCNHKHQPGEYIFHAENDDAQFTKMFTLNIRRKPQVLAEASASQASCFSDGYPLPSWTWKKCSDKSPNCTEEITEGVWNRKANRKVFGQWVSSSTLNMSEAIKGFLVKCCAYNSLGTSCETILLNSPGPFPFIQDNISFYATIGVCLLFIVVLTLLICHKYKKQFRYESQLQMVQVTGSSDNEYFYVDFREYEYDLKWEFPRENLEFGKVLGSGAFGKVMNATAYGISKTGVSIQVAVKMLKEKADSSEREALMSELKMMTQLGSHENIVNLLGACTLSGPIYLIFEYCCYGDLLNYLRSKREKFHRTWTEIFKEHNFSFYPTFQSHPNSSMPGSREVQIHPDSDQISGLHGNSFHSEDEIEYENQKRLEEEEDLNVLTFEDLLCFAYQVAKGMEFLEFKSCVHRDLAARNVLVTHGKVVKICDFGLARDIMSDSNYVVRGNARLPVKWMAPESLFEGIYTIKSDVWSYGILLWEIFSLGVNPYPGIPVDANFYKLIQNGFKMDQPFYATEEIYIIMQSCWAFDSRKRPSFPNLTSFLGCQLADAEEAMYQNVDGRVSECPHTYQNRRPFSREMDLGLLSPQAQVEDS

[3] = molecular target: kinases (KINOMEscan panel) (Homo sapiens, UniProt P42336, H1047Y); details: kinase PIK3CA(H1047Y); NEW KINOMEscan
Chain of kinases (KINOMEscan panel) (Homo sapiens, UniProt P42336, H1047Y) (P42336 whole entry H1047Y): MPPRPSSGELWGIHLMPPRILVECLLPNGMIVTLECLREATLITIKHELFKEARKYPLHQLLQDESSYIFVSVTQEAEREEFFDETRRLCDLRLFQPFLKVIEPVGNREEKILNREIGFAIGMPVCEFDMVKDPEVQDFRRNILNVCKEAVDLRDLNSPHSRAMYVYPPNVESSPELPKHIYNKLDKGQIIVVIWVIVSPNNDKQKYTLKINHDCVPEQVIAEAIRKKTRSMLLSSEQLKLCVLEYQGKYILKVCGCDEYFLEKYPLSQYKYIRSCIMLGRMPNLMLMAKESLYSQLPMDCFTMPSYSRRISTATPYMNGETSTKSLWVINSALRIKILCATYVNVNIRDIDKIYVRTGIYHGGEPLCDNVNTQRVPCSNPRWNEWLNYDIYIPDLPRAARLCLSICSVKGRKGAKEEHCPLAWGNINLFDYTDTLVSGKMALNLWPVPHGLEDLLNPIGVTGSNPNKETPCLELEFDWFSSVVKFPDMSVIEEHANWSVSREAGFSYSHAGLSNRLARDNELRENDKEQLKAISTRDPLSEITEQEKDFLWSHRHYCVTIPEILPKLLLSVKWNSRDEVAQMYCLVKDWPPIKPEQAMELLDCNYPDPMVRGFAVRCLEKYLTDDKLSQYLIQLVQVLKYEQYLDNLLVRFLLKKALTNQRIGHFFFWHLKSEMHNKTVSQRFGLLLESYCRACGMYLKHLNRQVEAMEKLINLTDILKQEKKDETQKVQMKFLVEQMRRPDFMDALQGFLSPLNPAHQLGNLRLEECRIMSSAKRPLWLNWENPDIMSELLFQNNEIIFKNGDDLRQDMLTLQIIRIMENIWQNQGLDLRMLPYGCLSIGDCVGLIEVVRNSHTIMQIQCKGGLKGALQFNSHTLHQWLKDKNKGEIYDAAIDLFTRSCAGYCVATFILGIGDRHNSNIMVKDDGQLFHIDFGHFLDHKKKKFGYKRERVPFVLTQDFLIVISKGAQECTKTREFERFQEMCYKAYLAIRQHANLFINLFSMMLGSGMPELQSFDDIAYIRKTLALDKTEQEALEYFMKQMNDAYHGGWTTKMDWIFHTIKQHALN

[4] = molecular target: T2, kinases (KINOMEscan panel) (Homo sapiens, UniProt P42681); details: kinase TXK; NEW KINOMEscan
T2 sequence (P42681 1-527): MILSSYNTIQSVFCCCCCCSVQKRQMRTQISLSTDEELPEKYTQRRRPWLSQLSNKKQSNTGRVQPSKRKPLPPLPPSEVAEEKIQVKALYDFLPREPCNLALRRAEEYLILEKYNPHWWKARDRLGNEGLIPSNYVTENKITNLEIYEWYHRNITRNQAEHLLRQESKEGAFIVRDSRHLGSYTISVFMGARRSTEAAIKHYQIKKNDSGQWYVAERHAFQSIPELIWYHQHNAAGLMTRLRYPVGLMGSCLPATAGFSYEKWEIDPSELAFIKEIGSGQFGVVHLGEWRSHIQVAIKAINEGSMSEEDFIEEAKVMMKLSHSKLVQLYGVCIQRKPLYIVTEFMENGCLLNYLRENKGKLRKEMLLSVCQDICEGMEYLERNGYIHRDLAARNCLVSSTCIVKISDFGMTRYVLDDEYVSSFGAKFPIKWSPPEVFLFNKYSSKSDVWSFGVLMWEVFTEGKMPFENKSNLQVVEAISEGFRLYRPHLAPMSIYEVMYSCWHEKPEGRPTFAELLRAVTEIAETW

[5] = molecular target: kinases (KINOMEscan panel) (Homo sapiens, UniProt Q86UE8); details: kinase TLK2; NEW KINOMEscan
Chain of kinases (KINOMEscan panel) (Homo sapiens, UniProt Q86UE8) (Q86UE8 whole entry): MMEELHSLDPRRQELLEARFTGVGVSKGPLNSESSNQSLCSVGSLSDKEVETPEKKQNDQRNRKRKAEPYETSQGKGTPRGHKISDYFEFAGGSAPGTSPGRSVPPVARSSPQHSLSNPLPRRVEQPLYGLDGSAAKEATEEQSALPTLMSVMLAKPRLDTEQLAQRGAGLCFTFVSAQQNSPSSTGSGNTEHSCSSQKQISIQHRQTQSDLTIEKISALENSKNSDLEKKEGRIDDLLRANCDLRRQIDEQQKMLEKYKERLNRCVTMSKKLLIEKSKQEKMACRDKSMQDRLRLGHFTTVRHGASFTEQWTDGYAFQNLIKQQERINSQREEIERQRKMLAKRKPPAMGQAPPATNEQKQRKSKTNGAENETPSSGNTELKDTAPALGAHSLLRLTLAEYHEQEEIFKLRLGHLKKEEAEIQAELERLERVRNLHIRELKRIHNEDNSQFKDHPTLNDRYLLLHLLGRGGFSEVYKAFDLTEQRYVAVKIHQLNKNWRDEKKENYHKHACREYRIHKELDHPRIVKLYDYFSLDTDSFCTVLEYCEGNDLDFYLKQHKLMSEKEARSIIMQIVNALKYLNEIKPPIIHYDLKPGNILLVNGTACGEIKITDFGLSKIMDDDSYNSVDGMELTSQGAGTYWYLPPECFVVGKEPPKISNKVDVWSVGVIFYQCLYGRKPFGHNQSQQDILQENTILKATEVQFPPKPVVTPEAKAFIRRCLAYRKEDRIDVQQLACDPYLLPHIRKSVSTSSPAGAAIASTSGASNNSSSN

[6] = molecular target: T3, kinases (KINOMEscan panel) (Homo sapiens, UniProt Q9NRH2); details: kinase SNRK; NEW KINOMEscan
T3 sequence (Q9NRH2 1-765): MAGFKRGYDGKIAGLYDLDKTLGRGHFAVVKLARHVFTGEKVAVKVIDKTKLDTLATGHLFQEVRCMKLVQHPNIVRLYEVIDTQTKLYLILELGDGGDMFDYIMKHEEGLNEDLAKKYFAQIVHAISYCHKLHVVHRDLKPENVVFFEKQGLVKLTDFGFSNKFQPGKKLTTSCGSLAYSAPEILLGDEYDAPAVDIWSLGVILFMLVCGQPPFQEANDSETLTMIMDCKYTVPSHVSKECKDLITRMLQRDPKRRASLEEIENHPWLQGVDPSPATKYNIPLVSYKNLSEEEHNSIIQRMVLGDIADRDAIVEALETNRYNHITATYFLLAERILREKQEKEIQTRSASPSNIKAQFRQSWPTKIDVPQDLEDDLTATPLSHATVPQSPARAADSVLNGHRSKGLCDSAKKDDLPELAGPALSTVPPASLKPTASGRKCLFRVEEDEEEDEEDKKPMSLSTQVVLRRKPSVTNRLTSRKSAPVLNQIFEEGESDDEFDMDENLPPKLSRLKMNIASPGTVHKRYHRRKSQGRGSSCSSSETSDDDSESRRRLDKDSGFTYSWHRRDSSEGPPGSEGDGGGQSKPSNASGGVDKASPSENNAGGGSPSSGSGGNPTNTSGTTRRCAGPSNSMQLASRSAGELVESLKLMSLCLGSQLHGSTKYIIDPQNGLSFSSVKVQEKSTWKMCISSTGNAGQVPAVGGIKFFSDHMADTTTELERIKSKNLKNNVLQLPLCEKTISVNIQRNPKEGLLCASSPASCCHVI

[7] = molecular target: T4, kinases (KINOMEscan panel) (Homo sapiens, UniProt Q9UQB9); details: AURKC; NEW KINOMEscan
T4 sequence (Q9UQB9 1-309): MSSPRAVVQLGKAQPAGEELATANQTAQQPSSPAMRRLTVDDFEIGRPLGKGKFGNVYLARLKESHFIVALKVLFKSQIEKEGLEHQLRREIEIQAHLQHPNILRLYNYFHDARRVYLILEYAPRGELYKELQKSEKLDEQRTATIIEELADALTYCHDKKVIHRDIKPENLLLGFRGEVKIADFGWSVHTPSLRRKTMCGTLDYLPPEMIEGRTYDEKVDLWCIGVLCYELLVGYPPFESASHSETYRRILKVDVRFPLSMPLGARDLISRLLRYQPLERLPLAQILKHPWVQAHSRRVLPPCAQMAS

Chain of kinases (KINOMEscan panel) (Homo sapiens, UniProt O00750) (O00750 whole entry): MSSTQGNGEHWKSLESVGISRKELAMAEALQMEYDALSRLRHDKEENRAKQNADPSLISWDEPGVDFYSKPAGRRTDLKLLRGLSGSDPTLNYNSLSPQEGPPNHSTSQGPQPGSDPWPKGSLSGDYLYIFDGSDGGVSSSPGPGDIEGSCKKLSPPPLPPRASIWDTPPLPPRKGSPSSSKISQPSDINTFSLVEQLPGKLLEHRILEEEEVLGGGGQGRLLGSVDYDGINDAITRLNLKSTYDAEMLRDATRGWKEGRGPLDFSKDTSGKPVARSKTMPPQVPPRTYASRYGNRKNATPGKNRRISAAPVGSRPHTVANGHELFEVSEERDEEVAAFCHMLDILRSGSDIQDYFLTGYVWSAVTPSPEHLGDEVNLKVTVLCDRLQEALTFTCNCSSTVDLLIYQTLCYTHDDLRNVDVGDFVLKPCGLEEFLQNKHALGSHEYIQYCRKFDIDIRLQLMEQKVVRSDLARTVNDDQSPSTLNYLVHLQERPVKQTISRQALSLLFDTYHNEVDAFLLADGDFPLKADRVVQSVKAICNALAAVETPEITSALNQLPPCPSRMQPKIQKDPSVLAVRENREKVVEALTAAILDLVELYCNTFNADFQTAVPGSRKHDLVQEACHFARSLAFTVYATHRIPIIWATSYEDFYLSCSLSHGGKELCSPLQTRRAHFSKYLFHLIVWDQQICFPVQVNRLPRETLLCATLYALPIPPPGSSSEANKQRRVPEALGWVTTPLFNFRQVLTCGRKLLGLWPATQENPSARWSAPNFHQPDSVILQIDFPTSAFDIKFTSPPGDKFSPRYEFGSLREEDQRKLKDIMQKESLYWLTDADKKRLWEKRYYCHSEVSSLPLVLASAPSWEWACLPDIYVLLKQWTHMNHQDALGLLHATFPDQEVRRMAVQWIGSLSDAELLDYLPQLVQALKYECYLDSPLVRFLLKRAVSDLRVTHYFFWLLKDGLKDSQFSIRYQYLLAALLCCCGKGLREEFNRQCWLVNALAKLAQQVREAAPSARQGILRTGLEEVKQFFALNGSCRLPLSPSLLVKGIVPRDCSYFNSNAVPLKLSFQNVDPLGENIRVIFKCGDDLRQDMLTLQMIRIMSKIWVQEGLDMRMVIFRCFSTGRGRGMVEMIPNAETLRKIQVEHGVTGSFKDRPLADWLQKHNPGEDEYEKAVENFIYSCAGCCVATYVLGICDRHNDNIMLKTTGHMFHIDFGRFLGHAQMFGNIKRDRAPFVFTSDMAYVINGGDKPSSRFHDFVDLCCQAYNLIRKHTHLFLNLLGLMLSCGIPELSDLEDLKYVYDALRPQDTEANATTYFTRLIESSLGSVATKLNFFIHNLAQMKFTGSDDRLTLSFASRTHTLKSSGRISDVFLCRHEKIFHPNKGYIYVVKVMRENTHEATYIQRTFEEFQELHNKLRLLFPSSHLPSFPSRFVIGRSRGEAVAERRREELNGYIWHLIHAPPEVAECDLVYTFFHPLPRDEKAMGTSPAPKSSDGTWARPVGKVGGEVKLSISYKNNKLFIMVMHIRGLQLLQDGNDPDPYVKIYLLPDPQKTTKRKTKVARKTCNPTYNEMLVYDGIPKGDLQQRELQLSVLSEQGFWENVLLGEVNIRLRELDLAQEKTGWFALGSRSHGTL

Row | Structure (SMILES) | KINOMEscan PIK3C2B [1] | KINOMEscan FLT3 [2] | KINOMEscan FLT3-autoinhibited [2] | KINOMEscan PIK3CA(H1047Y) [3] | KINOMEscan TXK [4] | KINOMEscan TLK2 [5] | KINOMEscan SNRK [6] | KINOMEscan AURKC [7]
1 | Cc1cccc(-c2nc(Nc3ccc4nn(C)cc4c3)c3ccccc3n2)n1 [NK167] | 0 | 0 | 0 | 0 | 3 | 0 | 6 | 0
2 | Cc1cccc(-c2nc(N(C)c3ccc4ncsc4c3)c3ccccc3n2)n1 [NK-161] | 0 | 0 | 0 | 4 | 0 | 0 | 7 | 0
